# Experimental data published in patent publication US9145401B2, “Amide derivative and use of the same as stability index of a luliconazole pharmaceutical formulation” (POLA PHARMA INC., priority 2012, dated 2015).
# Test system: fungi
# Experiment: Antifungal activity of the amide form
smiles,measurement,value
"NC(=O)/C(=C1/SCC(c2ccc(Cl)cc2Cl)S1)n1ccnc1 (single isomer, unassigned) [amide form, [R-(E)]-α-[4-(2,4-dichlorophenyl)-1,3-dithiolan-2-ylidene]-1H-imidazole-1-acetamide]",antifungal activity,low
